Results: the supplement of paper PMC10307832

Experiments:
Assay in all cases: relative viability (nuclei count vs DMSO), 5 days (fraction); higher = more cells survive
[1] = compound: C1=CC2=C(C=C(C(=C2N=C1)O)N=NC3=CC4=C(C=C3)C=C(C=C4)S(=O)(=O)O)S(=O)(=O)O + CC(=O)Nc1cccc(-n2c(=O)n(C3CC3)c(=O)c3c(Nc4ccc(I)cc4F)n(C)c(=O)c(C)c32)c1 [Trametinib] (partner 0.02 µM)
Method in brief: (§1)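 Medians of duplicate plates are given as relative viability. That measure is the nuclei count in treated wells divided by the count in vehicle wells. Counts were taken on 4× images of lung cancer cell lines in 1536-well plates, 5 days after pin-tool dosing the day after seeding with one drug alone or a fixed anchor-drug dose plus five library-drug doses (not always all listed) in √10 steps.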

[2] = compound: C1=CC2=C(C=C(C(=C2N=C1)O)N=NC3=CC4=C(C=C3)C=C(C=C4)S(=O)(=O)O)S(=O)(=O)O + CS(=O)(=O)CCNCc1ccc(-c2ccc3ncnc(Nc4ccc(OCc5cccc(F)c5)c(Cl)c4)c3c2)o1 [Lapatinib] (partner 2 µM)
Method in brief: as §1

[3] = compound: C1=CC2=C(C=C(C(=C2N=C1)O)N=NC3=CC4=C(C=C3)C=C(C=C4)S(=O)(=O)O)S(=O)(=O)O + CS(=O)(=O)N1CCN(Cc2cc3nc(-c4cccc5[nH]ncc45)nc(N4CCOCC4)c3s2)CC1 [Pictilisib] (partner 1 µM)
Method in brief: as §1

[4] = compound: O=C(NC1CCNCC1)c1n[nH]cc1NC(=O)c1c(Cl)cccc1Cl [AT-7519] + CC(=O)Nc1cccc(-n2c(=O)n(C3CC3)c(=O)c3c(Nc4ccc(I)cc4F)n(C)c(=O)c(C)c32)c1 [Trametinib] (partner 0.02 µM)
Method in brief: as §1

UMC-11
relative viability ([1]; first compound 0.08 µM): 0.74 | relative viability ([1]; first compound 0.253 µM): 0.777 | relative viability ([1]; first compound 0.8 µM): 0.658 | relative viability ([1]; first compound 2.53 µM): 0.728 | relative viability ([1]; first compound 8 µM): 0.766 | relative viability ([2]; first compound 0.08 µM): 1.07 | relative viability ([2]; first compound 0.253 µM): 0.969 | relative viability ([2]; first compound 0.8 µM): 0.889 | relative viability ([2]; first compound 2.53 µM): 1.02 | relative viability ([2]; first compound 8 µM): 0.716 | relative viability ([3]; first compound 0.08 µM): 1.05 | relative viability ([3]; first compound 0.253 µM): 0.762 | relative viability ([3]; first compound 0.8 µM): 0.761 | relative viability ([3]; first compound 2.53 µM): 0.908 | relative viability ([3]; first compound 8 µM): 0.833 | relative viability ([4]; first compound 0.01 µM): 0.593 | relative viability ([4]; first compound 0.03162 µM): 0.647 | relative viability ([4]; first compound 0.3162 µM): 0.498 | relative viability ([4]; first compound 1 µM): 0.384
